Assay results reported in PMC10682951, “Structure-function and rational design of a spider toxin Ssp1a at human voltage-gated sodium channel subtypes” (Frontiers in Pharmacology, 2023).

Experiments:
Format in all cases: cell-based
[1] = molecular target: T1, hNaV1.2 (Homo sapiens, UniProt Q99250); assay: Automated whole-cell patch-clamp (QPatch 16X), hNaV1.2; conditions: HEK293 cells expressing hNaV1.2 + β1 subunit; QPatch 16X; holding −80 mV, step to 0 mV; peptide incubated 2 min; 0.1% BSA; mean, SEM and n (2-7)
T1 construct: host or cells: HEK293
Summary of the method: (§1)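 HEK293 cells stably expressing the channel (human subtypes with β1 subunit), held at −80 mV; 2 min peptide pre-incubation, then 20 ms steps to 0 mV after a 200 ms −120 mV conditioning pulse. Extracellular pH 7.3 with 20 mM TEA-Cl, CsF-based pipette solution, 0.1% BSA; IC50 from four-parameter Hill fit.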

[2] = molecular target: T2, hNaV1.7 (Homo sapiens, UniProt Q15858); assay: Automated whole-cell patch-clamp (QPatch 16X), hNaV1.7; conditions: HEK293 cells expressing hNaV1.7 + β1 subunit; QPatch 16X; holding −80 mV, step to 0 mV; peptide incubated 2 min; 0.1% BSA; mean, SEM and n (3-9)
T2 construct: host or cells: HEK293
Summary of the method: as §1

[3] = molecular target: T3, hNaV1.3 (Homo sapiens, UniProt Q9NY46); assay: Automated whole-cell patch-clamp (QPatch 16X), hNaV1.3; conditions: HEK293 cells expressing hNaV1.3 + β1 subunit; QPatch 16X; holding −80 mV, step to 0 mV; peptide incubated 2 min; 0.1% BSA; mean, SEM and n (3-12)
T3 construct: host or cells: HEK293
Summary of the method: as §1

T1 sequence (Q07699 19-218): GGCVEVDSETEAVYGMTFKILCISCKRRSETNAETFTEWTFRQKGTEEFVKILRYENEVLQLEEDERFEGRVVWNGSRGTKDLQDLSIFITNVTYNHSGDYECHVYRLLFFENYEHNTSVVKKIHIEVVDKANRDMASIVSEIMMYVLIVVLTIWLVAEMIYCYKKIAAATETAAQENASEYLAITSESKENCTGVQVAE
T1 sequence (Q99250 whole entry): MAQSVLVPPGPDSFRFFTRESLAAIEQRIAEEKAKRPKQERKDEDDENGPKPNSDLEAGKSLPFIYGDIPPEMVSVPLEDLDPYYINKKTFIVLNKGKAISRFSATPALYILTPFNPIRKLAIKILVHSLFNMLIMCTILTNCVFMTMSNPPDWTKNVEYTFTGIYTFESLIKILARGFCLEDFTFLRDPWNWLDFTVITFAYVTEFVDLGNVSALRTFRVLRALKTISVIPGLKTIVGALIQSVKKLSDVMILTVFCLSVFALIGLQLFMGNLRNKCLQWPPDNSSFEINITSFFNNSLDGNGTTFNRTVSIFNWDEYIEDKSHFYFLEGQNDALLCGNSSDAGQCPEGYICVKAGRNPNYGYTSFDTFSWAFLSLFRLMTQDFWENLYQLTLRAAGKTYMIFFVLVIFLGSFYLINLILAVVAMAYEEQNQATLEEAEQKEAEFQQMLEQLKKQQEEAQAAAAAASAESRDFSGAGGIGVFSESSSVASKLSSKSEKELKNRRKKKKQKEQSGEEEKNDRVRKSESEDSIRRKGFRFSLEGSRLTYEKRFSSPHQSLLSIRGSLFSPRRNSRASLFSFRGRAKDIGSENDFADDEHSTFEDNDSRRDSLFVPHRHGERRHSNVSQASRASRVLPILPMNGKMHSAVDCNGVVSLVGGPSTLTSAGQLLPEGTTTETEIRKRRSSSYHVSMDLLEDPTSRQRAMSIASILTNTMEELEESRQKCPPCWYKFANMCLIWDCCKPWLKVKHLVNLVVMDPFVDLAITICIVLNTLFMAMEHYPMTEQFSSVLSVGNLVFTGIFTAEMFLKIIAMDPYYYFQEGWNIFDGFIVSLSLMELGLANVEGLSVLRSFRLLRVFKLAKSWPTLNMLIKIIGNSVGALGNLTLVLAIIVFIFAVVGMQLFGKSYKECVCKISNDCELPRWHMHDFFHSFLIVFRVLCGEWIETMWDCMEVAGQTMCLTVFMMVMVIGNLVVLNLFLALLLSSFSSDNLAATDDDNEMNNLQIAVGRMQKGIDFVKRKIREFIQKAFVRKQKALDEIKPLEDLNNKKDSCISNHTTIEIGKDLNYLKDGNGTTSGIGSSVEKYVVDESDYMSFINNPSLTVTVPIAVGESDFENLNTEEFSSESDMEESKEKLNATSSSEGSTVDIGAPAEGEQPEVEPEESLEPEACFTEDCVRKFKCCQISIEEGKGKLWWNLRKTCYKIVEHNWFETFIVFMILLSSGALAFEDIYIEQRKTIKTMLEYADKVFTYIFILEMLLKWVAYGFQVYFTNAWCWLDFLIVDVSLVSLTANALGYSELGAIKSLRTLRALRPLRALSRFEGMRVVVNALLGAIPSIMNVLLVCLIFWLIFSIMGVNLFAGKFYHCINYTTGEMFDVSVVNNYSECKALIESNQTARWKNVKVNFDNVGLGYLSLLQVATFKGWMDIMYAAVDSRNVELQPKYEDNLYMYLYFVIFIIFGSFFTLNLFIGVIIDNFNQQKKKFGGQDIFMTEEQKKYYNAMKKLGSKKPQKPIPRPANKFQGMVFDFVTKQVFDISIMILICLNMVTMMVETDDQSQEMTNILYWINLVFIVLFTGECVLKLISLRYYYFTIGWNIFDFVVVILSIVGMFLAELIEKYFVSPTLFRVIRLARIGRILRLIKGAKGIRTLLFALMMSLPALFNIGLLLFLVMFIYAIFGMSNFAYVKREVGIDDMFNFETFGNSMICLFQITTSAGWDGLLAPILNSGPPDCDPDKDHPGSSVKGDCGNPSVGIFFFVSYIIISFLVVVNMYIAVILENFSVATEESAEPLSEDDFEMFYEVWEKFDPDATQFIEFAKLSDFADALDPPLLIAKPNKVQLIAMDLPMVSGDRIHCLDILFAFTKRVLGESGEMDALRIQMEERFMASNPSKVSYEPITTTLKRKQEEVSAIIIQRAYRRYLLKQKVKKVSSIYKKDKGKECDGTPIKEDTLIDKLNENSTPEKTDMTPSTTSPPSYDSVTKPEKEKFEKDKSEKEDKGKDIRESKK
T2 sequence (Q15858 whole entry): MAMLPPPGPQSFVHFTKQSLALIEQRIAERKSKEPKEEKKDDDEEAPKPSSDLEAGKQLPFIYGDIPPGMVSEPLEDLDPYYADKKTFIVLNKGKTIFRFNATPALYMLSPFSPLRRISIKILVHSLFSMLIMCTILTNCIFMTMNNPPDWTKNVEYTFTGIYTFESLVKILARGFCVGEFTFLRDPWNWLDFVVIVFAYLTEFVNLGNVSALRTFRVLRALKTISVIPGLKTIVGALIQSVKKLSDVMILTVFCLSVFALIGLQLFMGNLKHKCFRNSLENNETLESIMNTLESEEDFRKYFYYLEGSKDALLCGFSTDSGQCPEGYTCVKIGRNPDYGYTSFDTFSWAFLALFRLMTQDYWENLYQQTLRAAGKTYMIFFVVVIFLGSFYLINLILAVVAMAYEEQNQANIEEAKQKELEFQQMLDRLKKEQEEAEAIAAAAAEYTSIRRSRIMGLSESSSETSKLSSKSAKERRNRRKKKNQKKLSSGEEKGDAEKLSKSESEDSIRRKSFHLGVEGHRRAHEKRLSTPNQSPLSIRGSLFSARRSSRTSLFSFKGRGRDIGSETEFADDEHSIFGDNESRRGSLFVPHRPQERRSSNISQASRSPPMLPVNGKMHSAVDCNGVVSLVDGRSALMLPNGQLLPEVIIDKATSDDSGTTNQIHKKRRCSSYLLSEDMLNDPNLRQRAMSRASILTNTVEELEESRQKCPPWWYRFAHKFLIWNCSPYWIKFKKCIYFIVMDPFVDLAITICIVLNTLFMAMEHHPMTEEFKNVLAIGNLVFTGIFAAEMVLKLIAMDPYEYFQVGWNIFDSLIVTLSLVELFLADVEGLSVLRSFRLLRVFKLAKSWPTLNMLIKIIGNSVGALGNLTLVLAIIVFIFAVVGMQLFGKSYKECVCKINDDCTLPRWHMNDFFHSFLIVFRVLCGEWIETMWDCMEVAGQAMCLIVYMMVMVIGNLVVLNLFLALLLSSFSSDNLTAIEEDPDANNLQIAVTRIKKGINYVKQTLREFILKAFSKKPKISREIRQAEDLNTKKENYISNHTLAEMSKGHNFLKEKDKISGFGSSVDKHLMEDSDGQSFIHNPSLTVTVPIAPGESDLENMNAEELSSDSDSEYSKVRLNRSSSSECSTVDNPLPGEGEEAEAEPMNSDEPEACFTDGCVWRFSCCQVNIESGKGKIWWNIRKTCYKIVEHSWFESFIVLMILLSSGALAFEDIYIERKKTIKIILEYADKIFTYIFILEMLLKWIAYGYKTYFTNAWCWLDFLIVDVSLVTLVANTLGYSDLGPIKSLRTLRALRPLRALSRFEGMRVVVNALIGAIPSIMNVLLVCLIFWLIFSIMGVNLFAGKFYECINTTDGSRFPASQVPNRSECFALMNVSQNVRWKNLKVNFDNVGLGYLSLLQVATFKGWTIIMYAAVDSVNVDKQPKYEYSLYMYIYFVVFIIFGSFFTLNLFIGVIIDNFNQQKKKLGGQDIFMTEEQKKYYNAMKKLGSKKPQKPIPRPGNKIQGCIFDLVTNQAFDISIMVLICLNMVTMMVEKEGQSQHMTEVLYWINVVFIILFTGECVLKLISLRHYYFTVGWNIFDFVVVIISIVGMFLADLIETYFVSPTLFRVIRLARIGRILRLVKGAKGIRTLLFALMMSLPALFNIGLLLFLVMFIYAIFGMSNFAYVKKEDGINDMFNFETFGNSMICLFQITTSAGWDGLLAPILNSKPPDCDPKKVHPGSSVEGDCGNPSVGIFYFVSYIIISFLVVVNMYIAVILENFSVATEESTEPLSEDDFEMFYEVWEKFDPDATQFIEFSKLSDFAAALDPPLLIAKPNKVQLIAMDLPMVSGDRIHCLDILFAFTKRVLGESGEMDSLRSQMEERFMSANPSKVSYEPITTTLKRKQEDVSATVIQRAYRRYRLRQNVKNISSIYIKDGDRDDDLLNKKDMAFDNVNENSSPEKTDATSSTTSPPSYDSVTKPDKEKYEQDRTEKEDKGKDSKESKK
T2 sequence (Q07699 19-218, further chain): as the sequence (Q07699 19-218) above

| SMILES | IC50 [1] | IC50 [2] | IC50 [3] |
| --- | --- | --- | --- |
| CC(C)C[C@H](NC(=O)[C@H](CC(=O)O)NC(=O)[C@@H](NC(=O)[C@H](CCCNC(=N)N)NC(=O)[C@@H]1CSSC[C@@H]2NC(=O)[C@H](CCCCN)NC(=O)[C@H](CC(N)=O)NC(=O)[C@H](CC(N)=O)NC(=O)[C@H](CC(N)=O)NC(=O)[C@@H]3CCCN3C(=O)[C@H](CC(=O)O)NC(=O)[C@@H]3CSSC[C@H](NC(=O)[C@H](C(C)C)NC(=O)[C@H](Cc4ccc(O)cc4)NC(=O)CNC(=O)[C@H](CCC(=O)O)NC(=O)[C@H](CSSC[C@H](NC(=O)[C@H](CC(=O)O)NC(=O)CN)C(=O)N[C@@H](CC(C)C)C(=O)NCC(=O)N[C@@H](Cc4c[nH]c5ccccc45)C(=O)N[C@@H](Cc4ccccc4)C(=O)N[C@@H](CO)C(=O)NCC(=O)N3)NC2=O)C(=O)N[C@@H](Cc2c[nH]cn2)C(=O)N[C@@H](Cc2c[nH]c3ccccc23)C(=O)N[C@@H](CCCCN)C(=O)N[C@@H](Cc2ccc(O)cc2)C(=O)N2CCC[C@H]2C(=O)N[C@@H](Cc2c[nH]c3ccccc23)C(=O)N1)[C@@H](C)O)C(=O)O [Y31T] | 874 nM | 545 nM | > 3000 nM |
| CC(C)C[C@H](NC(=O)[C@H](CC(=O)O)NC(=O)[C@H](Cc1c[nH]c2ccccc12)NC(=O)[C@H](CCCNC(=N)N)NC(=O)[C@@H]1CSSC[C@@H]2NC(=O)[C@H](CCCCN)NC(=O)[C@H](CC(N)=O)NC(=O)[C@H](CC(N)=O)NC(=O)[C@H](CC(N)=O)NC(=O)[C@@H]3CCCN3C(=O)[C@H](CC(=O)O)NC(=O)[C@@H]3CSSC[C@H](NC(=O)[C@H](C(C)C)NC(=O)[C@H](Cc4ccc(O)cc4)NC(=O)CNC(=O)[C@H](CCC(=O)O)NC(=O)[C@H](CSSC[C@H](NC(=O)[C@H](CC(=O)O)NC(=O)CN)C(=O)N[C@@H](CC(C)C)C(=O)NCC(=O)N[C@@H](Cc4c[nH]c5ccccc45)C(=O)N[C@@H](Cc4ccccc4)C(=O)N[C@@H](CO)C(=O)NCC(=O)N3)NC2=O)C(=O)N[C@@H](Cc2c[nH]cn2)C(=O)N[C@@H](Cc2c[nH]c3ccccc23)C(=O)N[C@@H](CCCCN)C(=O)N[C@@H](Cc2ccc(O)cc2)C(=O)N2CCC[C@H]2C(=O)N[C@@H](Cc2c[nH]c3ccccc23)C(=O)N1)C(=O)O [Y31W] | 89 nM | 80 nM | 160 nM |
